How the values were obtained:
[1] = target: wild-type βAR ([Asp113]βAR) (Mesocricetus auratus, UniProt P04274); assay: Adenylyl cyclase stimulation in membranes of cell lines expressing the receptor; details: for %NaF: (Asp^113)βAR, percentage of maximal stimulation by 10 mM NaF, Table 3; for maximal adenylyl cyclase stimulation (% of NaF): [Asp113]βAR, maximally effective concentration of the compound, relative to 10 mM NaF, Table 1
[2] = target: [Glu¹¹³]βAR (Mesocricetus auratus, UniProt P04274, D113E); assay: as above; details: for %NaF: (Glu^113)βAR, percentage of maximal stimulation by 10 mM NaF, Table 3
[Glu¹¹³]βAR, sequence (P04274 whole entry D113E): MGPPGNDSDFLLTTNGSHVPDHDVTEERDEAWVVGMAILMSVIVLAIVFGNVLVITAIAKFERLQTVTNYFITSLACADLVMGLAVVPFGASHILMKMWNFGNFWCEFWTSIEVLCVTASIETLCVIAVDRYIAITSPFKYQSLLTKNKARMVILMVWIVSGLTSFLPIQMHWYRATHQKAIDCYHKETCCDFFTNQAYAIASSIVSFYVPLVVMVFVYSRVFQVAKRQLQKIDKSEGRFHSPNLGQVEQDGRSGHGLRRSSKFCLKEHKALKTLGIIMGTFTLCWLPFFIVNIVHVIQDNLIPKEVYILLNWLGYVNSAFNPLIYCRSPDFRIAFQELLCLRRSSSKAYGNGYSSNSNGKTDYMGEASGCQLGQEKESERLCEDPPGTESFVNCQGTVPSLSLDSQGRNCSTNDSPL

[3] = target: T1, [Asn113]βAR (Mesocricetus auratus, UniProt P04274, D113N); assay: as above; assay type: biochemical, hamster; details: for maximal adenylyl cyclase stimulation (% of NaF): [Asn113]βAR, maximally effective concentration of the compound, relative to 10 mM NaF, Table 1
T1 construct: pSVBAC contains the full length hamster β₂AR cDNA cloned into the EcoRI site of pSVL; expressed in transfected cells; host or cells: mouse L cells (clonal lines; membranes)
T1 sequence (P04274 whole entry D113N): as the sequence (P04274 whole entry D113E) above, with E113N counted along it

[4] = target: [His¹¹³]βAR (Mesocricetus auratus, UniProt P04274, D113H); details: ligand concentrations as high as 1 mM
[His¹¹³]βAR, sequence (P04274 whole entry D113H): as the sequence (P04274 whole entry D113E) above, with E113H counted along it

[5] = target: [Cys¹¹³]βAR (Mesocricetus auratus, UniProt P04274, D113C); details: ligand concentrations as high as 1 mM
[Cys¹¹³]βAR, sequence (P04274 whole entry D113C): as the sequence (P04274 whole entry D113E) above, with E113C counted along it

[6] = target: [Arg¹¹³]βAR (Mesocricetus auratus, UniProt P04274, D113R); details: ligand concentrations as high as 1 mM
[Arg¹¹³]βAR, sequence (P04274 whole entry D113R): as the sequence (P04274 whole entry D113E) above, with E113R counted along it

[7] = target: [LYS¹¹³]βAR (Mesocricetus auratus, UniProt P04274, D113K); details: ligand concentrations as high as 1 mM
[LYS¹¹³]βAR, sequence (P04274 whole entry D113K): as the sequence (P04274 whole entry D113E) above, with E113K counted along it

[8] = maximum concentration 10⁻⁵ M (+)
[9] = maximum concentration 10⁻⁴ M (*)

wild-type βAR ([Asp113]βAR), sequence (P04274 whole entry): as the sequence (P04274 whole entry D113E) above, with E113D counted along it

Row | Structure (SMILES) | %NaF ([1]; maximum concentration 10⁻³ M) [%] | %NaF ([2]; maximum concentration 10⁻³ M) [%] | %NaF [1, 8] | %NaF [2, 9] | further results
1 | CC(C)NCC(O)COc1cccc2[nH]ccc12 (stereo not drawn) [Compound 2, pindolol] | 0 | 35 | – | – | –
2 | Cc1ccc(OCC(O)CNC(C)C)c2c1CCC2 (stereo not drawn) [Compound 3, 3-(7-methylindan-4-yloxy) -1-isopropylamino-2-propanol] | 0 | 6 | – | – | –
3 | CC(C)NCC(O)COc1ccccc1 (stereo not drawn) [Compound 4, 3-phenoxy-1-isopropylamino-2-propanol] | 0 | 0 | – | – | –
4 | CC(C)NCC(O)COc1ccc(-c2ncc[nH]2)cc1 (stereo not drawn) [Compound 5, 3-(4-(1-imidazol-2-yl)phenoxy)-1-isopropylamino-2-propanol] | 0 | 0 | – | – | –
5 | CC(C)NCC(O)COc1ccc(CC(N)=O)cc1 (stereo not drawn) [Compound 6, atenolol] | – | – | 0^+ % | 0^* % | –
6 | COCCc1ccc(OCC(O)CNC(C)C)cc1 (stereo not drawn) [Compound 7, metoprolol] | – | – | 0^+ % | 2^* % | –
7 | CC(C)NCC(O)COc1ccc(COCCOC(C)C)cc1 (stereo not drawn) [Compound 8, bisopropol] | – | – | 0^+ % | 0^* % | –
8 | CC(C)NCC(O)COc1ccccc1N1CCOCC1 (stereo not drawn) [Compound 9, 3-o-morpholinophenoxy-1-isopropylamino-2-propanol] | 0 | 0 | – | – | –
9 | N=C(N)NCC(O)c1ccc(O)c(O)c1 [L-612,158, 1-[2-(3,4-dihydroxyphenyl)-2-hydroxyethyl]guanidine] | – | – | – | – | maximal adenylyl cyclase stimulation (% of NaF) [1]: 11%; decrease in affinity of the interaction with the wild type βAR ([1]; versus isoproterenol): 1000 fold; maximal adenylyl cyclase stimulation (% of NaF) [3]: 50%
10 | CC(C)NCC(O)c1ccc(O)c(O)c1 (stereo not drawn) [isoproterenol] | – | – | – | – | stimulation of adenylyl cyclase [4]: no stimulation; stimulation of adenylyl cyclase [5]: no stimulation; maximal adenylyl cyclase stimulation (% of NaF) [1]: 100%; maximal adenylyl cyclase stimulation (% of NaF) [3]: 100%; decrease in affinity for the receptor ([3]; substitution of Asn for Asp¹¹³, versus wild-type receptor): 5000 fold; decrease in affinity for the receptor ([2]; substitution of Glu for Asp¹¹³, versus wild-type receptor): 300 fold; stimulation of adenylyl cyclase [6]: no stimulation; stimulation of adenylyl cyclase [7]: no stimulation

Source: patent publication EP0351921A2, “Modified beta adrenergic receptor” (MERCK & CO. INC., priority 1988, dated 1990)
